The results in this text go back to patent US11746087B1, “C4-carboxylic acid-substituted tryptamine derivatives and methods of using” (priority 2022, dated 2023).

Common to all, as to type: cell-based
The target in one test is T1, ADRA1A (Homo sapiens, UniProt P35348).
T1 sequence (P35348 1-466): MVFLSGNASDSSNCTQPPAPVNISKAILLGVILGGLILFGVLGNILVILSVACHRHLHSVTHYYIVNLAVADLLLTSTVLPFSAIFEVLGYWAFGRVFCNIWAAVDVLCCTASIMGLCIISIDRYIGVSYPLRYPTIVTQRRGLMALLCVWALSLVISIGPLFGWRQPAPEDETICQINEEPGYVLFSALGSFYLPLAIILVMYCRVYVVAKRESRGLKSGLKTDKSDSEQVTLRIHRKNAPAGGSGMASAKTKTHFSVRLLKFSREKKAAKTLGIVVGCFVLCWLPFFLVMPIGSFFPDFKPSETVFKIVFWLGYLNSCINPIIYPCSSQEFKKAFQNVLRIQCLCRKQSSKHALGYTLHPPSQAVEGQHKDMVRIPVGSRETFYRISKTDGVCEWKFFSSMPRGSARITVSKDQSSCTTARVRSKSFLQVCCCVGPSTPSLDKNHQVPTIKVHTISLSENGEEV
Put plainly: Calcium secondary messenger assay, agonist mode.

The next test concerns the target CNR1 (Homo sapiens, UniProt P21554). Kind of test: EFC-based cAMP secondary messenger assay, antagonist mode.
The target of the next test is T2, CHRM1 (Homo sapiens, UniProt P11229).
T2 sequence (P11229 1-460): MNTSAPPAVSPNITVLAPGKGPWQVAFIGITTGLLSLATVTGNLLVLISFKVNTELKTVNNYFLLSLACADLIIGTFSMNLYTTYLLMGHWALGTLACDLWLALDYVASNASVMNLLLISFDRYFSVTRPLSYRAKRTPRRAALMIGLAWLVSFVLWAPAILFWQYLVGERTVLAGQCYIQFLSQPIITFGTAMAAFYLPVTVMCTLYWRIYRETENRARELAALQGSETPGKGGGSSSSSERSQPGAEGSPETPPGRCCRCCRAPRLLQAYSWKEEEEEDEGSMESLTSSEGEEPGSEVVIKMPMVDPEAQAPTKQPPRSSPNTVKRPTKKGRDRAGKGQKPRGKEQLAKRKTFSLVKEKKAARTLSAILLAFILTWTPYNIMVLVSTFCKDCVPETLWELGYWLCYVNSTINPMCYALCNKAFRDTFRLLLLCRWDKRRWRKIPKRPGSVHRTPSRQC
Put plainly: Calcium secondary messenger assay, agonist mode.

The next test addresses T3, HTR1A (5-HT1A) (Homo sapiens, UniProt P08908).
T3 sequence (P08908 1-422): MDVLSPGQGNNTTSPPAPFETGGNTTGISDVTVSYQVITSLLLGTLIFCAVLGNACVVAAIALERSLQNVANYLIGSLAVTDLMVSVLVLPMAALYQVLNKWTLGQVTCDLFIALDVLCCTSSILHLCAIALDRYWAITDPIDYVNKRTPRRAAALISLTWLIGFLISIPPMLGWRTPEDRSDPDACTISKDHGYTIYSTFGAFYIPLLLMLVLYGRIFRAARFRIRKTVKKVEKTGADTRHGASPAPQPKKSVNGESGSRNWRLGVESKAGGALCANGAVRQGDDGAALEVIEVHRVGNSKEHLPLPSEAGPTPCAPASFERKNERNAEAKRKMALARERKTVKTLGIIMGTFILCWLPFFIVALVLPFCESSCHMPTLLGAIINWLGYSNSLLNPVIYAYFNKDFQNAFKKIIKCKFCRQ
Kind of test: EFC-based cAMP secondary messenger assay, agonist mode.

The next test deals with T4, ADRA2A (Homo sapiens, UniProt P08913).
T4 sequence (P08913 1-465): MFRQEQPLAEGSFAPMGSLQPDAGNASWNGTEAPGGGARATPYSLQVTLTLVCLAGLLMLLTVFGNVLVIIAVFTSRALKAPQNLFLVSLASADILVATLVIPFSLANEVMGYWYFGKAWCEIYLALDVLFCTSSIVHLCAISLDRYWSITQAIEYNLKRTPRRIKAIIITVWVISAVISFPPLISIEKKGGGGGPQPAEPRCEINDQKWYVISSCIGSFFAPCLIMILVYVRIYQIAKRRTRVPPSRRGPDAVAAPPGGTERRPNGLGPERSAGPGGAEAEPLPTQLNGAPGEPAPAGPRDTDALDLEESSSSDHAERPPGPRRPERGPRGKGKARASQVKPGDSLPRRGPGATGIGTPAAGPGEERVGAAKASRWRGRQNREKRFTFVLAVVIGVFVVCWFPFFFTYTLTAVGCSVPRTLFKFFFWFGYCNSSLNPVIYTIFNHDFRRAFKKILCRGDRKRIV
Put plainly: EFC-based cAMP secondary messenger assay, antagonist mode.

Test [1] addresses T5, DRD2S (Homo sapiens, UniProt P14416). Described as above.
Test [2] concerns the target T5, DRD2S. Put plainly: EFC-based cAMP secondary messenger assay, agonist mode.
A further test has as its target NET (Homo sapiens, UniProt P23975). Put plainly: Neurotransmitter transporter uptake assay, blocker.
For a further test, the target named is T6, HTR3A (5-HT3A) (Homo sapiens, UniProt P46098).
T6 sequence (P46098 24-478): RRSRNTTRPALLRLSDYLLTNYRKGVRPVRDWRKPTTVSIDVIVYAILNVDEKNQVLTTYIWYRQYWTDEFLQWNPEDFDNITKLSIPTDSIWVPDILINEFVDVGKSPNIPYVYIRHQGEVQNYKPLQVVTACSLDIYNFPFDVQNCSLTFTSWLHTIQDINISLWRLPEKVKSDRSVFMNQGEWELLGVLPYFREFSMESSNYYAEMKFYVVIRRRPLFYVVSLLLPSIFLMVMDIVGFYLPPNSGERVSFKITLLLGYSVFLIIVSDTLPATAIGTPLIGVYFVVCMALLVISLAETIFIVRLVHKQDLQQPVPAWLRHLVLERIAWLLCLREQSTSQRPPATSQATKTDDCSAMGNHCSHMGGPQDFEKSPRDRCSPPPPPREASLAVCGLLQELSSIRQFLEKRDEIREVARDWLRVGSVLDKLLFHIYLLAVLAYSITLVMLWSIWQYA
Put plainly: Ion channel assay (FLIPR membrane potential), blocker.

Some results are limits rather than exact numbers.

NET, sequence (P23975 whole entry): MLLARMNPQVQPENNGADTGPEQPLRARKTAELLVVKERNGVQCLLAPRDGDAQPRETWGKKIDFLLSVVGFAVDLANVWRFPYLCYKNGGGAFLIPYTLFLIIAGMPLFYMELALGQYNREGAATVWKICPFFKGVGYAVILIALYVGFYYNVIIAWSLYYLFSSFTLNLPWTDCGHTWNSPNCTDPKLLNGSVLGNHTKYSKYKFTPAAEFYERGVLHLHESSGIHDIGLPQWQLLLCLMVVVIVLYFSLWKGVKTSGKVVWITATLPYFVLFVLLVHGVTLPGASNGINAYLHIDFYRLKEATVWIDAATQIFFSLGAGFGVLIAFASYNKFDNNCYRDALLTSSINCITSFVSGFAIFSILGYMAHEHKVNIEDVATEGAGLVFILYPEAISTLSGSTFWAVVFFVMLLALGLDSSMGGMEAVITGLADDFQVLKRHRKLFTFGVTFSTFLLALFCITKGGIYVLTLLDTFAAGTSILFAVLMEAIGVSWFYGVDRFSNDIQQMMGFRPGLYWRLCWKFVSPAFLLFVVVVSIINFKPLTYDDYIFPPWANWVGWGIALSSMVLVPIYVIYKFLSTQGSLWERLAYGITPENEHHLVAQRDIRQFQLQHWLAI
CNR1, sequence (P21554 whole entry): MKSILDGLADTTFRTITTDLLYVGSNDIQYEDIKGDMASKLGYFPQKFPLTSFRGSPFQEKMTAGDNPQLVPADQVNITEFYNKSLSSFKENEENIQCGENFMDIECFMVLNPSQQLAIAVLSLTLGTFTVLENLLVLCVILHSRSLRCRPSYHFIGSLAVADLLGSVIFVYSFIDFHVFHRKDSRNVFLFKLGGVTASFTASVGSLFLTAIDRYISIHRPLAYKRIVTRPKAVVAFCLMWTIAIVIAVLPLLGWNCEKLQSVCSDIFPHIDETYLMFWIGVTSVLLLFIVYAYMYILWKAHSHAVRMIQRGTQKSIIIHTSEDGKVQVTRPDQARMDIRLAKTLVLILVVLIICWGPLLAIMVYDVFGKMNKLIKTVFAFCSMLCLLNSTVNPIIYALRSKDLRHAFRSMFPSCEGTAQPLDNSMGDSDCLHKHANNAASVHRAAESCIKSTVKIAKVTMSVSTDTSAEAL
T5 sequence (P14416 1-414 isoform P14416-2): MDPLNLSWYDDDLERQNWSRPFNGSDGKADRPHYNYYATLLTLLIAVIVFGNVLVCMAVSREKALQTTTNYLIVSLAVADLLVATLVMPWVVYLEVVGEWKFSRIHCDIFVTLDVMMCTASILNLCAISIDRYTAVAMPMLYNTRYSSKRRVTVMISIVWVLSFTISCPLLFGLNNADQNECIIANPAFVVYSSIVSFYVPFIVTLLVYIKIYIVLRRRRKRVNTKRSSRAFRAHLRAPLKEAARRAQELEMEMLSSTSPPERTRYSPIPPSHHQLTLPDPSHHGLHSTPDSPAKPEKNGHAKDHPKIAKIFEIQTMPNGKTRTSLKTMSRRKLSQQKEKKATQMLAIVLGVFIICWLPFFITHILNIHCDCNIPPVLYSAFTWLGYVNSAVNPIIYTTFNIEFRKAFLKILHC

As usually defined, the EC50 is the concentration that produces a half-maximal response. Broadly, the IC50 is the concentration needed to halve the response being measured. As to `CN(C)CCc1c[nH]c2cccc(OC(=O)c3c(F)c(F)c(F)c(F)c3F)c12` [C(VI)], the EC50 on ADRA1A was 34.4 µM; at CHRM1 it was above 100 µM; at HTR1A (5-HT1A), 2.21 µM; on DRD2S [2], 1.09 µM. Besides, the concentration for half-maximal inhibition (IC50) against CNR1 is above 100 µM; against ADRA2A it was above 100 µM; against DRD2S [1], above 100 µM; on NET, above 100 µM; against HTR3A (5-HT3A) it was 55.1 µM.

Turning to `CN(C)CCc1c[nH]c2cccc(OC(=O)c3ccc(Br)cc3)c12` [C(I)], the EC50 is above 100 µM on ADRA1A, above 100 µM at CHRM1, above 100 µM at HTR1A (5-HT1A) and 83.4 µM at DRD2S [2]. Further, the IC50 was above 100 µM against CNR1; 18.4 µM against ADRA2A; 91.1 µM at DRD2S [1]; 47 µM at NET; 7.52 µM on HTR3A (5-HT3A).

Take `CN(C)CCc1c[nH]c2cccc(OC(=O)c3cccc4c3OCCO4)c12` [C(XX)]: the EC50 at ADRA1A is above 100 µM; on CHRM1, above 100 µM; at HTR1A (5-HT1A) it was 2.03 µM; at DRD2S [2] it was 1.72 µM. Also, the IC50 on CNR1 was above 100 µM; at ADRA2A, 47.9 µM; on DRD2S [1], above 100 µM; against NET it was 15 µM; on HTR3A (5-HT3A), 3.77 µM.

For the molecule `CN(C)CCc1c[nH]c2cccc(OC(=O)CC3CC3)c12` [C(IV)], the EC50 on ADRA1A is above 100 µM; on CHRM1 it was above 100 µM; on HTR1A (5-HT1A), 5.56 µM; at DRD2S [2], 1.4 µM. The IC50 on CNR1 is above 100 µM; at ADRA2A, above 100 µM; at DRD2S [1], above 100 µM; on NET it was above 100 µM; at HTR3A (5-HT3A), 76.7 µM.

As for `COc1ccc(C(=O)Oc2cccc3[nH]cc(CCN(C)C)c23)cc1` [C(V)], the EC50 was above 100 µM on ADRA1A, above 100 µM on CHRM1, 7.08 µM at HTR1A (5-HT1A) and above 100 µM on DRD2S [2]. Moreover, the IC50 was above 100 µM against CNR1; above 100 µM at ADRA2A; 1.78 µM on DRD2S [1]; above 100 µM against NET; 33.9 µM on HTR3A (5-HT3A).
